Patent US6653316B1, “Substituted polycyclic aryl and heteroaryl pyrimidinones useful for selective inhibition of the coagulation cascade” (Pharmacia Corporation, priority 1999, dated 2003)
pIC50: −log10 of the molar value.

How the values were obtained:
Assay type in all cases: biochemical
human thrombin = human thrombin (Homo sapiens, UniProt P00734); experiment: Thrombin Assay (chromogenic substrate hydrolysis, OD 405 nm); details: for pIC50: cells without % sign, 60 min at room temperature, read-out: IC50 or % Inhibition Thrombin II (30 μM): IC50; for inhibition at 30 µM / inhibition at 100 µM: read-out: IC50 or % Inhibition Thrombin II (30 μM): % inhibition
Description: 0.28 nM human thrombin and 0.06 mM H-D-Phenylalanyl-L-pipecolyl-L-arginine-p-nitroaniline dihydrochloride are added to a 96-well assay plate containing either inhibitor or buffer (50 mM Tris-HCl, pH 8.0. 100 mM NaCl, 0.1% BSA). The reaction, in a final volume of 100 ul is measured immediately at 405 nm to determine background absorbance. The plate is incubated at room temperature for 60 min, at which time the rate of hydrolysis of the substrate is measured by monitoring the reaction at 405 nm for the release of p-nitroaniline. Percent inhibition of thrombin activity is calculated from OD405 nm value from the experimental and control sample.
(§1) Recombinant soluble TF, consisting of amino acids 1-219 of the mature protein sequence was expressed in E. coli and purified using a Mono Q Sepharose FPLC. Recombinant human VIIa was purchased from American Diagnostica, Greenwich Conn. and chromogenic substrate N-Methylsulfonyl-D-phe-gly-arg-p-nitroaniline was prepared by American Peptide Company, Inc., Sunnyvale, Calif. Factor Xa was obtained from Enzyme Research Laboratories, South Bend Ind., thrombin from Calbiochem, La Jolla, Calif., and trypsin and L-BAPNA from Sigma, St. Louis Mo. The chromogenic substrates S-2765 and S-2238 were purchased from Chromogenix, Sweden.

[1] = target: T1, recombinant soluble tissue factor and recombinant human factor VIIa (TF-VIIa) (Homo sapiens, UniProt P08709); experiment: TF-VIIa Assay (chromogenic substrate hydrolysis, OD 405 nm); details: cells without % sign; 60 min at room temperature; read-out: IC50 or % Inhibition TF-VIIa (30 μM): IC50
T1 construct: conversion of coagulation factor VII to VIIa by Xa; host or cells: E. coli (soluble TF)
Description: In this assay 100 nM recombinant soluble tissue factor and 2 nM recombinant human factor VIIa are added to a 96-well assay plate containing 0.4 mM of the substrate, N-Methylsulfonyl-D-phe-gly-arg-p-nitroaniline and either inhibitor or buffer (5 mM CaCl2,50 mM Tris-HCl, pH 8.0, 100 mM NaCl, 0.1% BSA). The reaction, in a final volume of 100 ul is measured immediately at 405 nm to determine background absorbance. The plate is incubated at room temperature for 60 min, at which time the rate of hydrolysis of the substrate is measured by monitoring the reaction at 405 nm for the release of p-nitroaniline. Percent inhibition of TF-VIIa activity is calculated from OD405 nm value from the experimental and control sample.
as §1

[2] = target: T2, trypsin, type IX from porcine pancreas (Sus scrofa, UniProt P00761); experiment: Trypsin Assay (L-BAPNA hydrolysis, OD 405 nm); details: cells without % sign; 60 min at room temperature; read-out: IC50 or % Inhibition Trpysin II (30 μM): IC50
T2 construct: purchased Sigma, St. Louis Mo. type IX; host or cells: porcine pancreas
Description: 5 ug/ml trypsin, type IX from porcine pancreas and 0.375 mM N-α-Benzoyl-L-arginine-p-nitroanilide (L-BAPNA) are added to a 96-well assay plate containing either inhibitor or buffer (50 mM Tris-HCl, pH 8.0, 100 mM NaCl, 0.1% BSA). The reactions, in a final volume of 100 ul are measured immediately at 405 nm to determine background absorbance. The plate is incubated at room temperature for 60 min, at which time the rate of hydrolysis of the substrate is measured by monitoring the reaction at 405 nm for the release of p-nitroaniline. Percent inhibition of trypsin activity is calculated from OD405 nm value from the experimental and control sample.
as §1

human factor Xa = target: T3, human factor Xa (Homo sapiens, UniProt P00742); experiment: Xa Assay (chromogenic substrate S-2765 hydrolysis, OD 405 nm)
T3 construct: purchased Enzyme Research Laboratories, South Bend Ind
Description: 0.3 nM human factor Xa and 0.15 mM N-α-Benzyloxycarbonyl-D-arginyl-L-glycyl-L-arginine-p-nitroaniline-dihydrochloride (S-2765) are added to a 96-well assay plate containing either inhibitor or buffer (50 mM Tris-HCl, pH 8.0, 100 mM NaCl, 0.1% BSA). The reaction. in a final volume of 100 ul is measured immediately at 405 nm to determine background absorbance. The plate is incubated at room temperature for 60 min, at which time the rate of hydrolysis of the substrate is measured by monitoring the reaction at 405 nm for the release of p-nitroaniline. Percent inhibition of Xa activity is calculated from OD405 nm value from the experimental and control sample.
as §1

[3] = read-out: IC50 or % Inhibition Factor Xa (30 μM): % inhibition

T1 sequence (P08709 213-466 limits assumed): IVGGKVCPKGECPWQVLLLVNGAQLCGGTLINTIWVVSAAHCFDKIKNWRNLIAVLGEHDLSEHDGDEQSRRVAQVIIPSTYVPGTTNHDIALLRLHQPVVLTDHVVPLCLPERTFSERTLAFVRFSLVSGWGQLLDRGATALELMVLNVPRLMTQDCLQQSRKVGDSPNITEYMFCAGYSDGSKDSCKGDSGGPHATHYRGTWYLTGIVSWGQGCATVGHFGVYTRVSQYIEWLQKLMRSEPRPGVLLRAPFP
T1 sequence (P08709 61-212 limits assumed): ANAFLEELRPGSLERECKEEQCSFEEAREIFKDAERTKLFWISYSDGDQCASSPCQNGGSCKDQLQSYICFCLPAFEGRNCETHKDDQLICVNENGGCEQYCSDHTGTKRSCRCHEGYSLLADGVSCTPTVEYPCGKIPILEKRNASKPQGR
T1 sequence (P13726 33-251 partner limits assumed): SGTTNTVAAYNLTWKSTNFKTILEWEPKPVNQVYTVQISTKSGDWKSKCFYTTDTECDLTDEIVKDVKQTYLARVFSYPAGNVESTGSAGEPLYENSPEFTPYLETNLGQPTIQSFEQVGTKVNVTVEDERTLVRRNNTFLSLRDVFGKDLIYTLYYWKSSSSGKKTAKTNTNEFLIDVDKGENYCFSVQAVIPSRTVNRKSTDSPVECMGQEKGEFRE
T2 sequence (P00761 9-231): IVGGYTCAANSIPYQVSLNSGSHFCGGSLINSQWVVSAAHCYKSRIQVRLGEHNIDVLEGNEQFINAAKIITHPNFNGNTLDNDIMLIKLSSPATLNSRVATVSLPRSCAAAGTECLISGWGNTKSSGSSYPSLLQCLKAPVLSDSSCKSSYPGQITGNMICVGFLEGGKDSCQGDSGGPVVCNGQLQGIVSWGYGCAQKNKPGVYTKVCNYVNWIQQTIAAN
T3 sequence (P00742 235-488 limits assumed): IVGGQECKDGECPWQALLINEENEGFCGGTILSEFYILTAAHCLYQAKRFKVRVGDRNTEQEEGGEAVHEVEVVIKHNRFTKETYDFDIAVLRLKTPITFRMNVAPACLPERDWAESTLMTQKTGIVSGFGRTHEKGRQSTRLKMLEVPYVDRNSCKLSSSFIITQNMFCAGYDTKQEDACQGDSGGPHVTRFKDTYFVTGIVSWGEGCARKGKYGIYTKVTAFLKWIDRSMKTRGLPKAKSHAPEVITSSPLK
T3 sequence (P00742 41-179 limits assumed): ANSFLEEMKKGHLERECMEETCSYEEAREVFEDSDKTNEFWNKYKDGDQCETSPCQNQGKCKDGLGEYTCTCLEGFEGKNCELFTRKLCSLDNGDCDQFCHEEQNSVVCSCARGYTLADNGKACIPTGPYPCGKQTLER

Row | SMILES | pIC50 (human thrombin) | pIC50 [1] | pIC50 [2] | inhibition at 30 µM (human thrombin) | inhibition at 30 µM (human factor Xa; [3]) | inhibition at 100 µM (human thrombin) | pIC50 (human factor Xa; cells without % sign, 60 min at room temperature, read-out: IC50 or % Inhibition Factor Xa (30 μM): IC50) | inhibition at 100 µM (human factor Xa; @100 μM, read-out: IC50 or % Inhibition Factor Xa (30 μM): % inhibition)
1 | N=C(N)c1ccc(CNC(=O)Cn2c(-c3ccccc3)ncc(NS(=O)(=O)Cc3ccccc3)c2=O)cc1 [Example 1] | 4.65 | 4.81 | 6.30 |  |  |  |  | 
2 | N=C(N)c1cccc(CNC(=O)Cn2c(-c3ccccc3)ncc(NS(=O)(=O)Cc3ccccc3)c2=O)c1 [Example 2] | < 4.52 |  |  |  |  |  |  | 
3 | N=C(N)c1ccc(CNC(=O)Cn2c(-c3ccccc3)ncc(NCCc3ccccc3)c2=O)cc1 [Example 3] |  | 6.00 | 6.22 |  |  |  |  | 
4 | CC(C)Nc1cnc(-c2cccc(N)c2)n(CC(=O)NCc2ccc(C(=N)N)cc2)c1=O [Example 6] |  | 7.30 | > 7.40 | 43% | 33% |  |  | 
5 | CC(C)Nc1cnc(-c2cccnc2)n(CC(=O)NCc2ccc(C(=N)N)cc2)c1=O [Example 7] | 4.95 | 6.15 | 7.40 |  | 33% |  |  | 
6 | N=C(N)c1ccc(CNC(=O)Cn2c(-c3cccc(N)c3)ncc(NC3CCC3)c2=O)cc1 [Example 8] |  | 7.10 | 7.40 | 42% | 15% |  |  | 
7 | COC(=O)c1cc(N)cc(-c2ncc(NC(C)C)c(=O)n2CC(=O)NCc2ccc(C(=N)N)cc2)c1 [Example 20] |  | 7.10 | 7.52 |  |  | 41% | 4.07 | 
8 | CC(C)Nc1cnc(-c2cc(N)cc(C(=O)O)c2)n(CC(=O)NCc2ccc(C(=N)N)cc2)c1=O [Example 21] |  | 7.15 | 7.30 |  |  | 26% |  | 15%
